This note sets out measurements from ChEMBL document CHEMBL4251581, “Synthesis and antimycobacterial activity of triterpeni≿ A-ring azepanes” (Eur J Med Chem, 2018).

Experiment [1] deals with Mycobacterium tuberculosis. Description: Antimycobacterial activity against Mycobacterium tuberculosis H37Rv. Format: functional, organism-based.
For experiment [2], the system named is Mycobacterium tuberculosis. Description: Antimycobacterial activity against p-aminosalicyclic acid-resistant Mycobacterium tuberculosis H37Rv ATCC 35821. It is filed as functional.
Experiment [3] has as its system Mycobacterium tuberculosis. Description: Bactericidal activity against Mycobacterium tuberculosis H37Rv. It is filed as functional.
In experiment [4] the test system is Mycobacterium tuberculosis. Kind of experiment: Antimycobacterial activity against Mycobacterium tuberculosis H37Ra by microplate alamar blue assay. It is filed as functional. On the technique in general: Alamar Blue is a resazurin reagent that responds to reducing activity.
Experiment [5] concerns Mycobacterium tuberculosis. Description: Antimycobacterial activity against Mycobacterium tuberculosis H37Rv ATCC 27294 by BACTEC-460 radiometric susceptibility assay. It is filed as functional.
Experiment [6] has as its system Mycobacterium tuberculosis. Kind of experiment: Antimycobacterial activity against Mycobacterium tuberculosis H37Rv after 7 days by microplate alamar blue assay. It is filed as functional. To be noted: 168 h.
Experiment [7] relates to Mycobacterium tuberculosis. Kind of experiment: Antimycobacterial activity against Mycobacterium tuberculosis H37Rv ATCC 27294 by microplate alamar blue assay. Format: functional.
Experiment [8] has as its system Mycobacterium tuberculosis. Description: Antimycobacterial activity against Mycobacterium tuberculosis H37Rv ATCC 27294 after 5 days by microplate alamar blue assay. It is filed as functional. As to conditions: H37Rv ATCC 27294, 120 h.

SMILES strings stand for the structures. ≈ marks a conversion by molar mass, not a printed value. Bounds are passed on as bounds.

The IC50 is the point on the concentration scale where inhibition reaches its midpoint. Lower therefore signals higher potency. The term IC90 denotes the concentration needed for an effect of 90%. Read a low IC90 as an effect from little substance. As a reminder, the MIC is the least concentration at which growth counts as inhibited. Read a high MIC as a need for much substance. In general, MBC refers to the smallest concentration meeting the test's criterion for killing. Low values mean more potent killing, high ones less potent killing. The MIC99 is the lowest concentration that inhibits either 99% of growth or 99% of the strains tested, depending on the study. Usually MIC90 stands for an inhibitory concentration at the 90% level, which refers to growth in some studies and to a panel of isolates in others. Higher therefore signals weaker potency.

In experiment [1], `C=C(C)[C@@H]1CC[C@]2(CO)CC[C@]3(C)[C@H](CC[C@@H]4[C@@]5(C)CCCNC(C)(C)[C@@H]5CC[C@]43C)[C@@H]12` returned a half-inhibitory concentration (IC50) of 10.9 µM, an IC90 of 12.4 µM and an MIC of 10 µM (≈ 4.42 µg/mL). The MIC in experiment [2] is 5 µg/mL (≈ 11.3 µM). Besides, in experiment [3], the minimum bactericidal concentration (MBC) is 10 µg/mL (≈ 22.6 µM).

`C=C(C)[C@@H]1CC[C@]2(C(=O)O)CC[C@]3(C)[C@H](CC[C@@H]4[C@@]5(C)CC[C@H](OC(=O)/C=C/c6ccc(O)cc6)C(C)(C)[C@@H]5CC[C@]43C)[C@@H]12` came in with a minimal inhibitory concentration (MIC) in experiment [4] of 6.25 µg/mL (≈ 10.4 µM).

Regarding `C[C@H]1[C@H](C)CC[C@]2(C(=O)O)CC[C@]3(C)C(=CC[C@@H]4[C@@]5(C)CC[C@H](O)C(C)(C)[C@@H]5CC[C@]43C)[C@H]12` [URSOLIC ACID], the MIC99 in experiment [1] is 100 µg/mL (≈ 219 µM); in experiment [5], 50 µg/mL (≈ 109 µM).

In turn, `C=C(C)[C@@H]1CC[C@]2(CO)CC[C@]3(C)[C@H](CC[C@@H]4[C@@]5(C)CC[C@H](O)C(C)(C)[C@@H]5CC[C@]43C)[C@@H]12` [BETULIN] came in with an MIC90 in experiment [6] of 25 to 30 µg/mL (≈ 56.5 to 67.8 µM).

For the molecule `C[C@H]1[C@H](C)CC[C@]2(C(=O)O)CC[C@]3(C)C(=CC[C@@H]4[C@@]5(C)CC[C@H](OC(=O)/C=C/c6ccc(O)cc6)C(C)(C)[C@@H]5CC[C@]43C)[C@H]12`, in experiment [4], 6.25 µg/mL (≈ 10.4 µM) was the least that counted as inhibitory (MIC).

On to `C=C(C)[C@@H]1CC[C@]2(C(=O)O)CC[C@]3(C)[C@H](CC[C@@H]4[C@@]5(C)C[C@@H](O)[C@H](O)C(C)(C)[C@@H]5CC[C@]43C)[C@@H]12` [ALPHITOLIC ACID], for which, in experiment [6], the MIC90 was found to be 12.5 µg/mL (≈ 26.4 µM).

Consider `C=C(C)[C@@H]1CC[C@]2(C(=O)O)CC[C@]3(C)[C@H](CC[C@@H]4[C@@]5(C)CC[C@H](O)C(C)(C)[C@@H]5CC[C@]43C)[C@@H]12` [BETULINIC ACID], for which, in experiment [6], the MIC90 was 25 µg/mL (≈ 54.7 µM). Further, the minimum inhibitory concentration (MIC) was 62 µg/mL (≈ 136 µM) in experiment [7], above 100 µg/mL in experiment [8] and 50 µg/mL (≈ 109 µM) in experiment [4].

`CC1(C)CC[C@]2(C(=O)O)CC[C@]3(C)C(=CC[C@@H]4[C@@]5(C)CC[C@H](OC(=O)/C=C/c6ccc(O)cc6)C(C)(C)[C@@H]5CC[C@]43C)[C@@H]2C1` registered a minimal inhibitory concentration (MIC) in experiment [4] of 6.25 µg/mL (≈ 10.4 µM).

In experiment [1], `CC1(C)CC[C@]2(COC(=O)/C=C/c3ccccc3)CC[C@]3(C)C(=CC[C@@H]4[C@@]5(C)CCCNC(C)(C)[C@@H]5CC[C@]43C)[C@H]2C1` displayed a half-inhibitory concentration (IC50) of 8 µM, a 90% effect concentration (IC90) of 12 µM and a minimum inhibitory concentration (MIC) of 12 µM (≈ 6.86 µg/mL). The molecule further returned an MBC in experiment [3] of 12 µg/mL (≈ 21 µM).

Turning to `CC1(C)CC[C@]2(C(=O)O)CC[C@]3(C)C(=CC[C@@H]4[C@@]5(C)CC[C@H](O)C(C)(C)[C@@H]5CC[C@]43C)[C@@H]2C1` [OLEANOLIC_ACID], the minimum inhibitory concentration (MIC) in experiment [8] is 50 µg/mL (≈ 109 µM); in experiment [4], 25 µg/mL (≈ 54.7 µM).

With `COc1ccc(/C=C/C(=O)OC[C@]23CC[C@@H](C)[C@H](C)[C@@H]2C2=CC[C@@H]4[C@@]5(C)CCCNC(C)(C)[C@@H]5CC[C@@]4(C)[C@]2(C)CC3)cc1`, in experiment [1], the concentration for half-maximal inhibition (IC50) is 1.8 µM, the 90% effect level (IC90) was put at 2.5 µM and the lowest concentration to inhibit growth (MIC) was 3.12 µM (≈ 1.88 µg/mL). The MBC in experiment [3] is 12 µg/mL (≈ 19.9 µM).

In the case of `C=C(C)[C@@H]1CC[C@]2(C)CC[C@]3(C)[C@H](CC[C@@H]4[C@@]5(C)CC[C@H](O)C(C)(C)[C@@H]5CC[C@]43C)[C@@H]12` [LUPEOL], the MIC90 in experiment [7] was above 64 µg/mL.

In experiment [1], `CC1(C)CC[C@]2(CO)CC[C@]3(C)C(=CC[C@@H]4[C@@]5(C)CCCNC(C)(C)[C@@H]5CC[C@]43C)[C@H]2C1` came in with a concentration for half-maximal inhibition (IC50) of 3.8 µM, a 90% effect concentration (IC90) of 11.5 µM and an MIC of 12.5 µM (≈ 5.52 µg/mL). Moreover, the MBC in experiment [3] worked out at 20 µg/mL (≈ 45.3 µM).

On to `COc1cc(/C=C/C(=O)O)ccc1O.C[C@H]1[C@H](C)CC[C@]2(C(=O)O)CC[C@]3(C)C(=CC[C@@H]4[C@@]5(C)CC[C@H](O)C(C)(C)[C@@H]5CC[C@]43C)[C@H]12`, for which it took 3.13 µg/mL to inhibit growth in experiment [4] (MIC).
